Experimental data reported in ChEMBL document CHEMBL1201862, “PubChem BioAssay data set” (2004).
The source made the active and inactive calls.

What was measured:
[1] = biological target: FAD-linked sulfhydryl oxidase ALR (Homo sapiens, UniProt P55789); experiment: ALR-catalysed DTT oxidation blockers – biochemical, H2O2 detection, luminescence, cherry-pick, dose response (AID 493248)
[2] = biological target: T1, Replicative DNA helicase DnaB (Mycobacterium tuberculosis, UniProt P9WMR3); experiment: DnaB intein splicing inhibitors, dose response, biochemical, cell-free fluorescence (AID 449749); format: functional
T1 sequence (P9WMR3 whole entry): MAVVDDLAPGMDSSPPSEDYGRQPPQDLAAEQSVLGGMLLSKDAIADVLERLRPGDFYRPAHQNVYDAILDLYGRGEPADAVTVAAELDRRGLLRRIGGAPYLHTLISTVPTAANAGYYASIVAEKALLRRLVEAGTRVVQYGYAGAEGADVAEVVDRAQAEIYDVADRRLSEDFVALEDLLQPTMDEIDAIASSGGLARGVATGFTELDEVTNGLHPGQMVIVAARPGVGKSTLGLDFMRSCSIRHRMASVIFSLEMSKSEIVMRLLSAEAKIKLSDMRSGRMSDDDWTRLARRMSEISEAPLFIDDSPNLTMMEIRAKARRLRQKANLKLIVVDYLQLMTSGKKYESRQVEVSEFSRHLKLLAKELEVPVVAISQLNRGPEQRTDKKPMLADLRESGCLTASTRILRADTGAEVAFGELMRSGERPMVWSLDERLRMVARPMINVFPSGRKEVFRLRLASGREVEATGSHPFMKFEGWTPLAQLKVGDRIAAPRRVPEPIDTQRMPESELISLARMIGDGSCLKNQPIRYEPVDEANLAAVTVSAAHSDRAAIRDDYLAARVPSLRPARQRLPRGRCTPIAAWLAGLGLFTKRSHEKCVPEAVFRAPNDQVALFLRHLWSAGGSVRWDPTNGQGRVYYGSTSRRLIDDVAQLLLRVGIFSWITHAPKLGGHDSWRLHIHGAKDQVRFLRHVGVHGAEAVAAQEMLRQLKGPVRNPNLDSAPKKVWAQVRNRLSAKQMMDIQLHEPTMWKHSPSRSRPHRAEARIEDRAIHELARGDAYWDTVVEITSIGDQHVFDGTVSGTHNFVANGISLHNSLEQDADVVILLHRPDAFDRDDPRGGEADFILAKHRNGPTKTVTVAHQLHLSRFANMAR

Protein RecA = biological target: T2, Protein RecA (Mycobacterium tuberculosis, UniProt P9WHJ3); experiment: Fluorescence Cell-Free Homogeneous Dose Retest to Identify Inhibitors of RecA-Intein Splicing Activity. [Related pubchem assays (depositor defined):AID2097, AID2223, AID489010, AID492950]; format: functional
T2 sequence (P9WHJ3 whole entry): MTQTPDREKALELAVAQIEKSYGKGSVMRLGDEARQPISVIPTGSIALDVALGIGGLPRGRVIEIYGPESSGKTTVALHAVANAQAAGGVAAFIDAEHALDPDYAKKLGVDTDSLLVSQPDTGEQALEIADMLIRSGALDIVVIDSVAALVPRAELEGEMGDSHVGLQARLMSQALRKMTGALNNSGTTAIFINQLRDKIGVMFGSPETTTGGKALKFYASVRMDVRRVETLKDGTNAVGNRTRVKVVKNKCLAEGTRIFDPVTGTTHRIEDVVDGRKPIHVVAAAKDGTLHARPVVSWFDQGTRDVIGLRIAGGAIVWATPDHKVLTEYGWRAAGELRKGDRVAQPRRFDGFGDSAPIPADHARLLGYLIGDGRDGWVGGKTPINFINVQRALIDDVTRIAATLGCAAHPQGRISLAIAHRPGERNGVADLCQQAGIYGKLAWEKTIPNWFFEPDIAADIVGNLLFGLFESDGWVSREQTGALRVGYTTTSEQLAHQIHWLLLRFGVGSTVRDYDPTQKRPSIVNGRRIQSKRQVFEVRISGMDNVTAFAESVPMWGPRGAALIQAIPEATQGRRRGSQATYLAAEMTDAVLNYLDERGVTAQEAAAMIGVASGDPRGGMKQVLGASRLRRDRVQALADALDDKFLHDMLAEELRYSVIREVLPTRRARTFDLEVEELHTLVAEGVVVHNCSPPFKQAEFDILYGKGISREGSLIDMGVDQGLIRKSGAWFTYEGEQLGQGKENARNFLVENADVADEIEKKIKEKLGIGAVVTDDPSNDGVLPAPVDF

[3] = viability of uninfected HEp-2 cells – cell-based, HTS, cytotoxicity control for RSV inhibitor project, dose response (AID 2410); format: functional; settings: human respiratory syncytial virus
[4] = Luminescence Cell-Based Dose Response HTS to Identify Activators of Luciferase Translation or Activity in H4 […] Cells. [Related pubchem assays: 1829 (Project Summary), 1814 (Primary HTS)]; format: functional
H4 = experiment: Luminescence Cell-Based Dose Response HTS to Identify Activators of 5'UTR Stem-Loop Driven Prion Protein mRNA Translation in H4 Neuroglioblastoma Cells. [Related pubchem assays: 1829 (Project Summary), 1814 (Primary HTS)]; format: functional; settings: Homo sapiens
Fatty acid synthase [5] = biological target: T3, Fatty acid synthase (Homo sapiens, UniProt P49327); experiment: inhibition of human FAS-TE enzyme activity – biochemical, kinetic fluorescence intensity, dose response (AID 624326); format: functional;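 further: rate of fluorescence rise from hydrolysis of a fluorogenic O-methyl fluorescein ester substrate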
T3 sequence (P49327 whole entry): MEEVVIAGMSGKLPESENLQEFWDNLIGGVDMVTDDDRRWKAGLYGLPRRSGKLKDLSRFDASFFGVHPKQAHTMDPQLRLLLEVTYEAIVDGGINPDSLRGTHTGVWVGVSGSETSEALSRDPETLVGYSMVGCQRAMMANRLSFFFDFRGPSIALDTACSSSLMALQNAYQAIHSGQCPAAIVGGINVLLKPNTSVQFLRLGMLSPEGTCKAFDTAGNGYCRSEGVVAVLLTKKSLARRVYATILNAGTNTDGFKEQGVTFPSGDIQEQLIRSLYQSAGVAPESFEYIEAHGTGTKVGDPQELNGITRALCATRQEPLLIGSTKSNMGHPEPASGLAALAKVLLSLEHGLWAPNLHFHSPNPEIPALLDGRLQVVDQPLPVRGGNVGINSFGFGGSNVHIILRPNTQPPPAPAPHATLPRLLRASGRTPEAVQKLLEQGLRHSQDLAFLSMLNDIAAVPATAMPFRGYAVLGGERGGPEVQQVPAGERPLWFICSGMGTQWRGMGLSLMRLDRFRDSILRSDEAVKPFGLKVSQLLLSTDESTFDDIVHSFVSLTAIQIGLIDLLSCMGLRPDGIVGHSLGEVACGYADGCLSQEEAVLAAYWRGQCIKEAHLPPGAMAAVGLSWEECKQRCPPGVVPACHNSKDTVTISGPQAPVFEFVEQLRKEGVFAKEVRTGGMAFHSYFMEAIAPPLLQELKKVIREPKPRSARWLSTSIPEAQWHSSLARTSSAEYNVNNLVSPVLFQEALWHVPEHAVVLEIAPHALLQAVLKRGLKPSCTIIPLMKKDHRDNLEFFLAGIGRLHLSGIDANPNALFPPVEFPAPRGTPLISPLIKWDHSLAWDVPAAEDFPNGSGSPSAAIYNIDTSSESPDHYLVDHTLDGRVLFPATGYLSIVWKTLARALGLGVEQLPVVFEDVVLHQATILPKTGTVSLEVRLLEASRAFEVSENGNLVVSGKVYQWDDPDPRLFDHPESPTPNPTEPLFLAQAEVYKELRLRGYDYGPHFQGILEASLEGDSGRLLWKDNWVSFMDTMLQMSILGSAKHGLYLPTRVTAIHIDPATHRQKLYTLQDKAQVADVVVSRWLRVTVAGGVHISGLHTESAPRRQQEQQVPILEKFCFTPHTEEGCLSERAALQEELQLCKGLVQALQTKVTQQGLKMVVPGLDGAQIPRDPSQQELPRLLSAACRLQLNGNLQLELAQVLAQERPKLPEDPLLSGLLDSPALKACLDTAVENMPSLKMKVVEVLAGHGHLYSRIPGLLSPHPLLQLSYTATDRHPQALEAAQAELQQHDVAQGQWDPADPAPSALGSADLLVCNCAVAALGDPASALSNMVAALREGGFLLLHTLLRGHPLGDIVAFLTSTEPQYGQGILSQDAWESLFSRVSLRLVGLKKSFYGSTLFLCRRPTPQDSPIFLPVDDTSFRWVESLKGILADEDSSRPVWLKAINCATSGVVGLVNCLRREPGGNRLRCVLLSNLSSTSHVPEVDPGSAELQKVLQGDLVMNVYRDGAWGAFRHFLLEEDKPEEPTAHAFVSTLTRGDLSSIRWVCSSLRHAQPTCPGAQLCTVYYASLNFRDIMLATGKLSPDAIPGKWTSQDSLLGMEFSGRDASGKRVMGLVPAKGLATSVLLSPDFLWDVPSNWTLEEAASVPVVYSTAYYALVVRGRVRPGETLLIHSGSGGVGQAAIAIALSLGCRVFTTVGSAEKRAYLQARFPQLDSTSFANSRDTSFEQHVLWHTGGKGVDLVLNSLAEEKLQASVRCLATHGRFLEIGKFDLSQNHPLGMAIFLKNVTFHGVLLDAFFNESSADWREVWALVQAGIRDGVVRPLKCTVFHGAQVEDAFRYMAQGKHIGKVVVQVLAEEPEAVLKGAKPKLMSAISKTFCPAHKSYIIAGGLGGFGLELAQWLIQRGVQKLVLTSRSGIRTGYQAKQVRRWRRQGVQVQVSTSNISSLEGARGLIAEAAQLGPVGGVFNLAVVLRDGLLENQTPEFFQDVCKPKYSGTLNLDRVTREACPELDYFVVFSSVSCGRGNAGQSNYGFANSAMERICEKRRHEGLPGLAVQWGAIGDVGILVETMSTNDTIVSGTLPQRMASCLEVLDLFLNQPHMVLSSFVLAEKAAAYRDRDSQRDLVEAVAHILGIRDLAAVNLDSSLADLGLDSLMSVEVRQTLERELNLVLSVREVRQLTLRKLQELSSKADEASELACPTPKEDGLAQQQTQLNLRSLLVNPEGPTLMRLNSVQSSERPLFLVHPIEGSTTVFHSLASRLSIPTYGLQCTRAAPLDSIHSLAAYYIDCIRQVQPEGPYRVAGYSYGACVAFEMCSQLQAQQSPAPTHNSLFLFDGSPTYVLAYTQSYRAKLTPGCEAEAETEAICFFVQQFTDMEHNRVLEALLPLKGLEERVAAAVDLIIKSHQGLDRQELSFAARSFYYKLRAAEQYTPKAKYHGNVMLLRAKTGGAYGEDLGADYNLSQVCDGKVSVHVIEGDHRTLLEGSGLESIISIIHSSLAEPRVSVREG

Fatty acid synthase [6] = biological target: T3, Fatty acid synthase; experiment: inhibition of human FAS-TE enzyme activity – biochemical, endpoint fluorescence intensity, uHTS hits, dose response (AID 624327); format: functional;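 further: fluorescence from hydrolysis of an O-methyl fluorescein acyl ester substrate by the enzyme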
[7] = biological target: T4, Heat shock factor protein 1 (Mus musculus, UniProt P38532); experiment: enhancement of HSF1-driven luciferase signal – cell-based, NIH3T3, luminescence, dose retest, confirmation (AID 435004); format: functional;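 further: stress induced by proteasome inhibitor MG132 added 30 min after compound; luciferase reporter driven by HSF1 response element in NIH3T3 cells; actives raise luminescence as potentiators of the MG132 stress response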
T4 sequence (P38532 whole entry): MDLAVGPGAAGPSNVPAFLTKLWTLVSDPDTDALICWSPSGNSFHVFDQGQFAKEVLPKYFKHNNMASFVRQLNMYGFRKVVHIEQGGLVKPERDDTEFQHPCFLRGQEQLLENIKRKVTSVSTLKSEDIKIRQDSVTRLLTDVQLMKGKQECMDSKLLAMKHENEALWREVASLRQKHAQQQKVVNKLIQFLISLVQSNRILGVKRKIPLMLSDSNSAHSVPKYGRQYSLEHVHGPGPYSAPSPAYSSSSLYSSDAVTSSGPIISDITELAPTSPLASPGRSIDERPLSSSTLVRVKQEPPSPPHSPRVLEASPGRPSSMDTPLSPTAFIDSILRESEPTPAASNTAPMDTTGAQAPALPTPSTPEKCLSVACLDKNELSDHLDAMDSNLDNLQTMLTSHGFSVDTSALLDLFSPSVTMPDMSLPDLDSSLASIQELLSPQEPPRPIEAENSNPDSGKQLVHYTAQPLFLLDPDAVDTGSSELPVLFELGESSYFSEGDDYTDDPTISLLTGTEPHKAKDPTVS

[8] = biological target: T4, Heat shock factor protein 1; experiment: decrease of HSF1-responsive luciferase luminescence – cell-based, NIH3T3, dose retest, confirmation (AID 2382); format: functional;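 further: NIH3T3 fibroblasts with HSF1-driven luciferase reporter stressed by proteasome inhibitor MG132; luminescence from HSF1-driven luciferase expression after 8 hours of MG132 stress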
[9] = alpha-synuclein stem-loop luciferase translation blockers – H4 neuroglioma cells, luminescence, confirmation (AID 1988); format: functional, cell-based
[10] = luciferase reporter signal suppression in cells – H4 neuroglioma cells, luminescence, dose response (AID 1990); format: functional, cell-based
[11] = Luminescence Cell-Based Dose Response HTS to Identify Inhibitors of 5'UTR Stem-Loop Driven Prion Protein mRNA Translation in H4 Neuroglioblastoma Cells. [Related pubchem assays: 1827 (Project Summary), 1813 (Primary HTS)]; format: functional

Sequence of FAD-linked sulfhydryl oxidase ALR (P55789 whole entry): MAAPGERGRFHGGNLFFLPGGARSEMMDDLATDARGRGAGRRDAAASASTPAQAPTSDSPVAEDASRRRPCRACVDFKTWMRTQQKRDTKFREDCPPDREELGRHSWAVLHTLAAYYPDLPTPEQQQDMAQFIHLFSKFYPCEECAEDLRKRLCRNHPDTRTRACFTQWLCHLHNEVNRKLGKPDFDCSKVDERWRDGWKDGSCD

SMILES: CCN(CC)c1ccc(NS(=O)(=O)c2ccc(OC)cc2)cc1
- AC50 [1]: 5.11 µM (active)

SMILES: COC(=O)Nc1nn(-c2ccc(OC)cc2)c(=O)c(C#N)c1C
- AC50 [2]: 25.9 µM (active)
- EC50 (Protein RecA): 6.31 µM (active)

SMILES: COc1ccc(-c2cc(-c3ccccc3O)[nH]n2)cc1OC
- CC50 [3]: > 50 µM (active)

SMILES: COc1ccc(N2CCN(C(=O)c3ccc(-n4nc(C)cc4C)cc3)CC2)cc1
- CC50 [3]: 42 µM (active)

SMILES: CCN(CC)c1ccc(NS(=O)(=O)c2ccc3c(c2)oc(=O)n3C)c(C)c1
- AC50 [1]: 0.409 µM (active)

SMILES: COc1ccc(C2=NC(c3ccccc3)CO2)cc1 (configuration not stated)
- EC50 [4]: 39.5 µM (active)

SMILES: CCOC(=O)N/N=C1\CCc2ccccc21
- EC50 (H4): 11.7 µM (active)
- EC50 [4]: 7.73 µM (active)

SMILES: COc1ccc(-c2ncc3ccccn23)cc1
- EC50 (H4): 32.1 µM (active)
- EC50 [4]: 101 µM (active)

SMILES: CCCC(C)C1c2c(c(C)c(C)oc2=O)Oc2c(C)c(C)oc(=O)c21 (configuration not stated)
- IC50 (Fatty acid synthase [5]): 8.38 µM (active)
- IC50 (Fatty acid synthase [6]): 9.33 µM (active)

SMILES: CCC(=O)c1cc(F)c(N2CCN(C(=O)Cc3ccccc3)CC2)cc1C
- CC50 [3]: 17 µM (active)

SMILES: C/C(CC(=O)NCc1ccco1)=N\NC(=O)c1ccc([N+](=O)[O-])cc1Cl
- AC50 [2]: 10.2 µM (active)
- EC50 (Protein RecA): 5.56 µM (active)

SMILES: c1ccc(Sc2ncnc3ccccc23)cc1
- AC50 [2]: 21.9 µM (active)
- EC50 (Protein RecA): 11.2 µM (active)

SMILES: COc1ccc(NC(=O)N2CCN(c3nc(-c4cccc(OC)c4)cs3)CC2)cc1
- CC50 [3]: 9.75 µM (active)

SMILES: O=C(COC(=O)c1cc([N+](=O)[O-])ccc1N1CCOCC1)c1ccccc1
- IC50 (Fatty acid synthase [5]): 6.51 µM (active)
- IC50 (Fatty acid synthase [6]): 9.63 µM (active)

SMILES: CCS(=O)(=O)N1CCN=C1SCc1cccnc1
- AC50 [1]: 2.06 µM (active)

SMILES: Cc1ccc2oc(-c3cccc(NC(=O)Cn4cnc5c(=O)n(C)c(=O)n(C)c54)c3)nc2c1
- EC50 (H4): 6.94 µM (active)
- EC50 [4]: 42.3 µM (active)

SMILES: Cc1c(Br)c([N+](=O)[O-])nn1CC(=O)N1CCc2ccccc2C1
- IC50 (Fatty acid synthase [5]): 6.67 µM (active)
- IC50 (Fatty acid synthase [6]): 4.38 µM (active)

SMILES: CCOC(=O)c1ccc2[nH]c3c(c2c1)CCCC3O (configuration not stated)
- CC50 [3]: 47.1 µM (active)

SMILES: Cc1cc(C)c2c(c1)cc(C)c1nnc(SCC(=O)N3CCCc4ccccc43)n12
- CC50 [3]: 44.2 µM (active)

SMILES: O=[N+]([O-])c1ccc(CSc2ccc(S(=O)(=O)N3CCCC3)cn2)cc1
- IC50 (Fatty acid synthase [5]): 10.6 µM (active)
- IC50 (Fatty acid synthase [6]): 12.1 µM (active)

SMILES: CC[C@@H]1[C@H]2CCCC(=O)N3CC[C@@H](C[C@@H]1Nc1ccccc1)[C@@H]23
- EC50 [7]: > 260 µM (inactive)
- AC50 [1]: 0.008 µM (active)

SMILES: CN(C)c1ccc(/C=N/NC(=O)CNC(=O)c2ccncc2)cc1
- AC50 [1]: 3.61 µM (active)

SMILES: COc1ccc(C(=O)CN(CCC(=O)O)S(=O)(=O)c2ccc([N+](=O)[O-])cc2)cc1
- IC50 (Fatty acid synthase [5]): 6.15 µM (active)
- IC50 (Fatty acid synthase [6]): 3.51 µM (active)

SMILES: COCCN(Cc1ccccc1)C(S)=Nc1ccc(Cl)cc1
- EC50 [8]: 30.3 µM (active)
- EC50 [9]: 16.8 µM (active)
- EC50 [10]: > 120 µM (not active)
- EC50 [11]: > 120 µM (not active)

SMILES: CC(OC(=O)c1cccc([N+](=O)[O-])c1)C(=O)N1CCc2ccccc21 (configuration not stated)
- IC50 (Fatty acid synthase [5]): 3.98 µM (active)
- IC50 (Fatty acid synthase [6]): 3.92 µM (active)

SMILES: CCOc1ccc(S(=O)(=O)N2CCC(C(=O)NCC(=O)Nc3cccc(Cl)c3C)CC2)cc1
- CC50 [3]: 49.1 µM (active)

SMILES: COC(=O)N/N=C\c1ccc(OC(=O)c2ccco2)cc1
- AC50 [2]: 44.6 µM (active)
- EC50 (Protein RecA): 16.7 µM (active)

SMILES: O[C@H]1C[C@H](c2ccccc2)N(CC2CCCCC2)C[C@@H]1n1cc(C2CC2)nn1
- IC50 (Fatty acid synthase [5]): 6.52 µM (active)
- IC50 (Fatty acid synthase [6]): 8.28 µM (active)

SMILES: CC(C(=O)NCCc1ccccc1)N1c2cccc3cccc(c23)S1(=O)=O (configuration not stated)
- CC50 [3]: 45.6 µM (active)

SMILES: CCc1cccc(NC(=O)c2cccc3c2C(=O)N(C2CCCCC2)C3)c1
- CC50 [3]: 38.1 µM (active)

SMILES: CC(=O)Nc1sc(NC(=O)c2ccccc2)nc1-c1cccs1
- AC50 [1]: 3.14 µM (active)

SMILES: CC(=O)Nc1ccc(N2C(=O)CSC2c2ccc(F)cc2)cc1 (configuration not stated)
- AC50 [1]: < 0.005 µM (active)

SMILES: CC(C(=O)NC1C=CS(=O)(=O)C1)N1C(=O)/C(=C\c2ccccc2)SC1=S (configuration not stated)
- AC50 [1]: 0.359 µM (active)

SMILES: Cc1onc(-c2ccccc2)c1C(=O)n1nnc2ccccc21
- IC50 (Fatty acid synthase [5]): 10.3 µM (active)
- AC50 [2]: 7.85 µM (active)
- EC50 (Protein RecA): 13 µM (active)
- IC50 (Fatty acid synthase [6]): 12.9 µM (active)

SMILES: Cc1ccc(/C=C/c2ccc(=O)n(Cc3ccc(F)cc3)n2)cc1
- IC50 (Fatty acid synthase [5]): 14 µM (active)
- IC50 (Fatty acid synthase [6]): 11.8 µM (active)
